Assay results: ChEMBL document CHEMBL6078657, “Thiazolidinedione-based structure modification of ergosterol peroxide provides thiazolidinedione-conjugated derivatives as potent agents against breast cancer cells through a PI3K/AKT/mTOR pathway” (Bioorg Med Chem, 2025)

Legend:
Type in all cases: functional, cell-based
HepG2 = test: Antiproliferative activity against human HepG2 cells assessed as cell viability measured after 48 hrs incubation by MTT assay; conditions: HepG2, 48 h
A549 = test: Antiproliferative activity against human A549 cells assessed as cell viability measured after 48 hrs incubation by MTT assay; conditions: A549, 48 h
MCF7 = test: Antiproliferative activity against human MCF7 cells assessed as cell viability measured after 48 hrs incubation by MTT assay; conditions: MCF7, 48 h

SMILES	IC50 (HepG2) [µM]	IC50 (A549) [µM]	IC50 (MCF7) [µM]
Cc1ccc(/C=C2/SC(=O)N(CC(=O)O[C@H]3CC[C@]4(C)[C@H]5CC[C@]6(C)[C@@H]([C@H](C)/C=C/[C@H](C)C(C)C)CC[C@H]6[C@@]56C=C[C@]4(C3)OO6)C2=O)cc1	14.6	14.2	11.5
CC(C)[C@@H](C)/C=C/[C@@H](C)[C@H]1CC[C@@H]2[C@]1(C)CC[C@H]1[C@]23C=C[C@]2(C[C@@H](OC(=O)N4CCN(C(=O)CN5C(=O)S/C(=C\c6ccc(Cl)cc6Cl)C5=O)CC4)CC[C@]12C)OO3	15.6	11.7	12.9
CC(C)[C@@H](C)/C=C/[C@@H](C)[C@H]1CC[C@@H]2[C@]1(C)CC[C@H]1[C@]23C=C[C@]2(C[C@@H](OC(=O)N4CCN(C(=O)CN5C(=O)S/C(=C\c6ccccc6)C5=O)CC4)CC[C@]12C)OO3	9.71	6.05	8.48
COc1ccc(/C=C2/SC(=O)N(CC(=O)O[C@H]3CC[C@]4(C)[C@H]5CC[C@]6(C)[C@@H]([C@H](C)/C=C/[C@H](C)C(C)C)CC[C@H]6[C@@]56C=C[C@]4(C3)OO6)C2=O)cc1	10.7	9.91	18.4
CC(C)[C@@H](C)/C=C/[C@@H](C)[C@H]1CC[C@@H]2[C@]1(C)CC[C@H]1[C@]23C=C[C@]2(C[C@@H](OC(=O)N4CCN(C(=O)CN5C(=O)CSC5=O)CC4)CC[C@]12C)OO3	8.97	4.82	6.37
CC(C)[C@@H](C)/C=C/[C@@H](C)[C@H]1CC[C@@H]2[C@]1(C)CC[C@H]1[C@]23C=C[C@]2(C[C@@H](OC(=O)N4CCN(C(=O)CN5C(=O)S/C(=C\c6ccc(Br)cc6)C5=O)CC4)CC[C@]12C)OO3	12.4	5.74	10.4
CC(C)[C@@H](C)/C=C/[C@@H](C)[C@H]1CC[C@@H]2[C@]1(C)CC[C@H]1[C@]23C=C[C@]2(C[C@@H](OC(=O)N4CCN(C(=O)CN5C(=O)S/C(=C\c6ccccc6F)C5=O)CC4)CC[C@]12C)OO3	10.8	6.95	15.8
COc1ccccc1/C=C1/SC(=O)N(CC(=O)O[C@H]2CC[C@]3(C)[C@H]4CC[C@]5(C)[C@@H]([C@H](C)/C=C/[C@H](C)C(C)C)CC[C@H]5[C@@]45C=C[C@]3(C2)OO5)C1=O	18.9	13.1	14.3
CC(C)[C@@H](C)/C=C/[C@@H](C)[C@H]1CC[C@@H]2[C@]1(C)CC[C@H]1[C@]23C=C[C@]2(C[C@@H](OC(=O)CN4C(=O)S/C(=C/c5ccc(Cl)cc5)C4=O)CC[C@]12C)OO3	13.5	9.18	9.92
CC(C)[C@@H](C)/C=C/[C@@H](C)[C@H]1CC[C@@H]2[C@]1(C)CC[C@H]1[C@]23C=C[C@]2(C[C@@H](OC(=O)CN4C(=O)S/C(=C/c5ccc(Br)cc5)C4=O)CC[C@]12C)OO3	17.8	9.5	12.3
COc1cccc(/C=C2\SC(=O)N(CC(=O)N3CCN(C(=O)O[C@H]4CC[C@]5(C)[C@H]6CC[C@]7(C)[C@@H]([C@H](C)/C=C/[C@H](C)C(C)C)CC[C@H]7[C@@]67C=C[C@]5(C4)OO7)CC3)C2=O)c1	12.7	10.1	14.3
CC(C)[C@@H](C)/C=C/[C@@H](C)[C@H]1CC[C@@H]2[C@]1(C)CC[C@H]1[C@]23C=C[C@]2(C[C@@H](OC(=O)CN4C(=O)S/C(=C/c5ccc(F)c(Cl)c5)C4=O)CC[C@]12C)OO3	15.8	7.92	11.1
CC(C)[C@@H](C)/C=C/[C@@H](C)[C@H]1CC[C@@H]2[C@]1(C)CC[C@H]1[C@]23C=C[C@]2(C[C@@H](OC(=O)N4CCN(C(=O)CN5C(=O)S/C(=C\c6cccc7ccccc67)C5=O)CC4)CC[C@]12C)OO3	14.5	7.88	9.41
CC(C)[C@@H](C)/C=C/[C@@H](C)[C@H]1CC[C@@H]2[C@]1(C)CC[C@H]1[C@]23C=C[C@]2(C[C@@H](OC(=O)CN4C(=O)S/C(=C/c5cccs5)C4=O)CC[C@]12C)OO3	17.3	7.4	16.6
COc1ccc(/C=C2\SC(=O)N(CC(=O)N3CCN(C(=O)O[C@H]4CC[C@]5(C)[C@H]6CC[C@]7(C)[C@@H]([C@H](C)/C=C/[C@H](C)C(C)C)CC[C@H]7[C@@]67C=C[C@]5(C4)OO7)CC3)C2=O)c(OC)c1OC	9.75	5.17	8.96
CC(C)[C@@H](C)/C=C/[C@@H](C)[C@H]1CC[C@@H]2[C@]1(C)CC[C@H]1[C@]23C=C[C@]2(C[C@@H](OC(=O)N4CCN(C(=O)CN5C(=O)S/C(=C\c6ccoc6)C5=O)CC4)CC[C@]12C)OO3	19.8	10.4	16.7
CC(C)[C@@H](C)/C=C/[C@@H](C)[C@H]1CC[C@@H]2[C@]1(C)CC[C@H]1[C@]23C=C[C@]2(C[C@@H](OC(=O)CN4C(=O)S/C(=C/c5ccc(F)cc5)C4=O)CC[C@]12C)OO3	14.7	11.7	16.1

SMILES	IC50 (HepG2) [µM]	IC50 (A549) [µM]	IC50 (MCF7) [µM]
CC(C)[C@@H](C)/C=C/[C@@H](C)[C@H]1CC[C@H]2C3=CC=C4C[C@@H](OC(=O)NCCNC(=O)CN5C(=O)S/C(=C\C6CC6)C5=O)CC[C@]4(C)[C@H]3CC[C@]12C	> 80	> 80	> 80
COc1ccc(/C=C2\SC(=O)N(CC(=O)N3CCN(C(=O)O[C@H]4CC[C@]5(C)[C@H]6CC[C@]7(C)[C@@H]([C@H](C)/C=C/[C@H](C)C(C)C)CC[C@H]7[C@@]67C=C[C@]5(C4)OO7)CC3)C2=O)cc1OC	21.5	7.75	13.6
CC(C)[C@@H](C)/C=C/[C@@H](C)[C@H]1CC[C@@H]2[C@]1(C)CC[C@H]1[C@]23C=C[C@]2(C[C@@H](OC(=O)NCCNC(=O)CN4C(=O)S/C(=C\c5ccc(F)cc5)C4=O)CC[C@]12C)OO3	13.3	9.17	11.6
CC(C)[C@@H](C)/C=C/[C@@H](C)[C@H]1CC[C@@H]2[C@]1(C)CC[C@H]1[C@]23C=C[C@]2(C[C@@H](OC(=O)NCCNC(=O)CN4C(=O)S/C(=C\c5ccc(C(C)(C)C)cc5)C4=O)CC[C@]12C)OO3	9.86	6.68	10.7
COc1ccc(/C=C2/SC(=O)N(CC(=O)O[C@H]3CC[C@]4(C)[C@H]5CC[C@]6(C)[C@@H]([C@H](C)/C=C/[C@H](C)C(C)C)CC[C@H]6[C@@]56C=C[C@]4(C3)OO6)C2=O)c(OC)c1OC	10.9	9.1	9.66
Cc1ccc(/C=C2\SC(=O)N(CC(=O)N3CCN(C(=O)O[C@H]4CC[C@]5(C)[C@H]6CC[C@]7(C)[C@@H]([C@H](C)/C=C/[C@H](C)C(C)C)CC[C@H]7[C@@]67C=C[C@]5(C4)OO7)CC3)C2=O)cc1	10.4	7.01	9.45
CC(C)[C@@H](C)/C=C/[C@@H](C)[C@H]1CC[C@@H]2[C@]1(C)CC[C@H]1[C@]23C=C[C@]2(C[C@@H](OC(=O)N4CCN(C(=O)CN5C(=O)S/C(=C\c6ccc(Cl)cc6)C5=O)CC4)CC[C@]12C)OO3	9.58	5.94	8.94
CC(C)[C@@H](C)/C=C/[C@@H](C)[C@H]1CC[C@@H]2[C@]1(C)CC[C@H]1[C@]23C=C[C@]2(C[C@@H](OC(=O)N4CCN(C(=O)CN5C(=O)S/C(=C\c6ccc(C(C)(C)C)cc6)C5=O)CC4)CC[C@]12C)OO3	19.5	11.6	14.4
CC(C)[C@@H](C)/C=C/[C@@H](C)[C@H]1CC[C@@H]2[C@]1(C)CC[C@H]1[C@]23C=C[C@]2(C[C@@H](OC(=O)CN4C(=O)S/C(=C/C5CC5)C4=O)CC[C@]12C)OO3	13.1	13	9.35
CC(C)[C@@H](C)/C=C/[C@@H](C)[C@H]1CC[C@@H]2[C@]1(C)CC[C@H]1[C@]23C=C[C@]2(C[C@@H](OC(=O)CN4C(=O)S/C(=C/c5ccccc5F)C4=O)CC[C@]12C)OO3	12.5	11.4	14.4
CC(C)/C=C1\SC(=O)N(CC(=O)N2CCN(C(=O)O[C@H]3CC[C@]4(C)[C@H]5CC[C@]6(C)[C@@H]([C@H](C)/C=C/[C@H](C)C(C)C)CC[C@H]6[C@@]56C=C[C@]4(C3)OO6)CC2)C1=O	10.5	7.69	8.89
CC(C)[C@@H](C)/C=C/[C@@H](C)[C@H]1CC[C@H]2C3=CC=C4C[C@@H](OC(=O)NCCNC(=O)CN5C(=O)S/C(=C\c6cccc7ccccc67)C5=O)CC[C@]4(C)[C@H]3CC[C@]12C	> 80	> 80	> 80
CC(C)[C@@H](C)/C=C/[C@@H](C)[C@H]1CC[C@@H]2[C@]1(C)CC[C@H]1[C@]23C=C[C@]2(C[C@@H](OC(=O)CN4C(=O)CSC4=O)CC[C@]12C)OO3	17.7	7.52	10.4
COc1cccc(/C=C2/SC(=O)N(CC(=O)O[C@H]3CC[C@]4(C)[C@H]5CC[C@]6(C)[C@@H]([C@H](C)/C=C/[C@H](C)C(C)C)CC[C@H]6[C@@]56C=C[C@]4(C3)OO6)C2=O)c1	15.3	10.8	17
CC(C)[C@@H](C)/C=C/[C@@H](C)[C@H]1CC[C@@H]2[C@]1(C)CC[C@H]1[C@]23C=C[C@]2(C[C@@H](OC(=O)CN4C(=O)S/C(=C/c5cccc6ccccc56)C4=O)CC[C@]12C)OO3	6.08	10.3	14.7
COc1ccc(/C=C2/SC(=O)N(CC(=O)O[C@H]3CC[C@]4(C)[C@H]5CC[C@]6(C)[C@@H]([C@H](C)/C=C/[C@H](C)C(C)C)CC[C@H]6[C@@]56C=C[C@]4(C3)OO6)C2=O)cc1OC	18	15.2	13.6
